The numbers were not newly measured in patent publication US6001802A, “Platelet-derived growth factor analogues” (Trigen Limited, priority 1993, dated 1999), which cites them from elsewhere.

Where no end group is shown, it is not given here.

The target in one data set is PDGF β-receptors (Homo sapiens, UniProt P09619). The settings on record: reference [6].
In data set [1] the test system is smooth muscle cells of injured arteries. The settings on record: administration of PDGF, rat angioplasty model [19].

Chain of PDGF β-receptors (P09619 33-1106): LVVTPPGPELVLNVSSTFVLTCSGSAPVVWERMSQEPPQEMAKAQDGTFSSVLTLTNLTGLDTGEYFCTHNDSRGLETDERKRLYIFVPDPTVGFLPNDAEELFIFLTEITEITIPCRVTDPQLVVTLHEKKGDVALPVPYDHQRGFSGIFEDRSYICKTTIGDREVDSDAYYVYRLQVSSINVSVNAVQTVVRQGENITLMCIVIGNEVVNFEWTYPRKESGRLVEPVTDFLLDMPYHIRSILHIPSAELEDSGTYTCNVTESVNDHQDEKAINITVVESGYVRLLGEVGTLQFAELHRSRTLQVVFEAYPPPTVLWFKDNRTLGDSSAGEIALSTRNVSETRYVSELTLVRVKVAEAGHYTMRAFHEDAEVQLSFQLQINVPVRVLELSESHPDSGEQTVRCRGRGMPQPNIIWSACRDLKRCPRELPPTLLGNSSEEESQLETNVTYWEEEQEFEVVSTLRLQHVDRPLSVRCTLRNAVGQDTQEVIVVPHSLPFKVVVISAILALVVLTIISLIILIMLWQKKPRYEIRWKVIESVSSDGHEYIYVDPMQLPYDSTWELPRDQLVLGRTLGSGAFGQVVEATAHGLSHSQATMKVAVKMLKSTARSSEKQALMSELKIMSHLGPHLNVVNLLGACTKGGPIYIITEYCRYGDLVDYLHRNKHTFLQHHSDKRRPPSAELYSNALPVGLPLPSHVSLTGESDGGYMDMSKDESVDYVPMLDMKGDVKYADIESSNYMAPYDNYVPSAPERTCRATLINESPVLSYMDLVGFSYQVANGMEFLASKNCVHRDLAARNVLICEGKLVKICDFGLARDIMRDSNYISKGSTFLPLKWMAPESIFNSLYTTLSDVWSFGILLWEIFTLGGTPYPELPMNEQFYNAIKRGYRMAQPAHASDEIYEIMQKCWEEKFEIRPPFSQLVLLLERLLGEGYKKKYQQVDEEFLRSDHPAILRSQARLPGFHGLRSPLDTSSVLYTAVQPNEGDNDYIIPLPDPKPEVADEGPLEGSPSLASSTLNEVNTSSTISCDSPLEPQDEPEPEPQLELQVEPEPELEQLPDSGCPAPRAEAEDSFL

“ANFLVW - - - EIVRKKP (also: N-terminal ANFLVW segment joined by an unspecified link (- - -)) [literature peptide of PDGF-B chain residues 35-40 and 78-83 [6]]”: the “antagonist for PDGF” value with PDGF β-receptors is on record as “effective as an antagonist for PDGF”. With “PDGF: 28-31 KD dimeric, highly basic glycoprotein, potent mitogen for connective tissue cells”, in data set [1], the “SMC migration from the media to the intima” value is recorded as 20 fold and the “SMC proliferation in the media” value is given as 2-3 fold.
